From ChEMBL document CHEMBL3822377, “Locking PDK1 in DFG-out conformation through 2-oxo-indole containing molecules: Another tools to fight glioblastoma” (Eur J Med Chem, 2016)

Experiments:
[1] = biological target: T1, 3-phosphoinositide-dependent protein kinase 1 (Homo sapiens) (UniProt O15530); experiment: Inhibition of PDK1 (unknown origin) at 10 uM by FRET-based Z-lyte assay
T1 sequence (whole entry): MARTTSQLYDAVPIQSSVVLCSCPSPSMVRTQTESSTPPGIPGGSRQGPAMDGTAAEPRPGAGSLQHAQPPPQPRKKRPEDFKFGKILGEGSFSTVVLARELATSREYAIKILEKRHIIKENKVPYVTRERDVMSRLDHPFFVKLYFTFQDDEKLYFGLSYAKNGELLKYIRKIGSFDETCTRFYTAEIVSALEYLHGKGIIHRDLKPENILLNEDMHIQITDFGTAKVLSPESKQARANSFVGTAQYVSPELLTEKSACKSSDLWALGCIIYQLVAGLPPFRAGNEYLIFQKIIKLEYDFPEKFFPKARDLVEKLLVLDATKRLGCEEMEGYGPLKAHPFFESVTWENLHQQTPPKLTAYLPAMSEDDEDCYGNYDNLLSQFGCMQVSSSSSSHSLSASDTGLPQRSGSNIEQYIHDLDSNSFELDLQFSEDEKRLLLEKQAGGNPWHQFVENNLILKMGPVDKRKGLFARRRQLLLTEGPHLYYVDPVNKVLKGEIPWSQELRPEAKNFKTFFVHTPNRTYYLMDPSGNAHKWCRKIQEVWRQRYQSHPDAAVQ

[2] = biological target: 3-phosphoinositide-dependent protein kinase 1 (Homo sapiens, UniProt O15530); experiment: Inhibition of PDK1 (unknown origin) using AKT(Thr-308)-tide substrate
[3] = Antiproliferative activity against human U87MG cells after 72 hrs; type: functional, cell-based, U-87MG ATCC; details: U-87 MG

| SMILES | inhibition [1] | further results |
| --- | --- | --- |
| O=C1Nc2ccc(NC(=O)c3cccn(Cc4ccc(F)c(F)c4)c3=O)cc2/C1=C/c1cnc[nH]1 | 64% | – |
| O=C1Nc2ccc(NC(=O)[C@H](NC(=O)c3cccn(Cc4ccc(F)c(F)c4)c3=O)c3ccccc3)cc2/C1=C/c1cnc[nH]1 | 95% | – |
| O=C1Cc2cc(NC(=O)c3cccn(Cc4ccc(F)c(F)c4)c3=O)ccc2N1 | < 10% | – |
| O=C(CNC(=O)c1cccn(Cc2ccc(F)c(F)c2)c1=O)Nc1ccc2c(c1)/C(=C\c1ccc(F)cc1)C(=O)N2 | < 10% | – |
| Cn1ccnc1/C=C1/C(=O)Nc2ccc(NC(=O)c3cccn(Cc4ccc(F)c(F)c4)c3=O)cc21 | < 10% | – |
| O=C1Nc2ccc(NC(=O)[C@H](NC(=O)c3cccn(Cc4ccc(F)c(F)c4)c3=O)c3ccccc3)cc2/C1=C\c1ccc(F)cc1 | < 10% | – |
| O=C1Nc2ccc(NC(=O)[C@H](NC(=O)c3cccn(Cc4ccc(F)c(F)c4)c3=O)c3ccccc3)cc2/C1=C/c1ncc[nH]1 | 74% | – |
| O=C(CC(c1ccccc1)C(C(=O)O)C(=O)O)c1ccc(C(F)(F)F)cc1 (stereo not given) | – | AC50 [2]: 2 µM |
| O=C1Cc2cc(NC(=O)[C@H](NC(=O)c3cccn(Cc4ccc(F)c(F)c4)c3=O)c3ccccc3)ccc2N1 | < 10% | – |
| O=C1Nc2ccc(NC(=O)c3cccn(Cc4ccc(F)c(F)c4)c3=O)cc2/C1=C\c1ccc(F)cc1 | < 10% | – |
| O=C(CNC(=O)c1cccn(Cc2ccc(F)c(F)c2)c1=O)Nc1ccc2c(c1)CC(=O)N2 | 57% | – |
| O=C1Nc2ccc(NC(=O)c3cccn(Cc4ccc(F)c(F)c4)c3=O)cc2/C1=C/c1cccs1 | < 10% | – |
| O=C1Nc2ccc(NC(=O)[C@H](NC(=O)c3cccn(Cc4ccc(F)c(F)c4)c3=O)c3ccccc3)cc2/C1=C/c1cccs1 | < 10% | – |
| O=C(N[C@@H](COc1ccc2[nH]c(=O)[nH]c2c1)c1ccccc1)c1cccn(Cc2ccc(F)c(F)c2)c1=O | – | IC50 [3]: > 30 µM |
| O=C(CNC(=O)c1cccn(Cc2ccc(F)c(F)c2)c1=O)Nc1ccc2c(c1)/C(=C/c1cccs1)C(=O)N2 | 19% | – |
